Test results from patent US20060069132A1, “Azolecarboxamide herbicides” (priority 2004, published 2006).
Like-named read-outs stand apart in the source and are kept apart here.

Tests used:
morningglory = experiment: Test A pre-/postemergence herbicide test; format: in vivo, Ipomoea spp.; details: for pest or weed control at 500 g/ha / pest or weed control at 2000 g/ha: Ipomoea, 240 h
How it was run: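 Plants are held in greenhouse about ten days after treatment, then compared with untreated controls and scored 0 (no effect) to 100 (complete control). Preemergence dosing is a directed soil spray on sown sandy loam; postemergence dosing is spray to runoff at 2–10 cm height.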

pigweed = experiment: Test B pre-/postemergence herbicide test; format: in vivo, Amaranthus retroflexus; details: for pest or weed control at 125 g/ha / pest or weed control at 500 g/ha: Amaranthus retroflexus, 336 h; for Pigweed plant response rating (0 to 100 scale) / Plant response rating, Pigweed: 0 = no effect, 100 = complete control
How it was run: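 Herbicidal effect was judged by eye on a 0–100 scale after plants stood 13 to 15 days in the greenhouse following pre- or postemergence treatment with surfactant-containing formulations.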

wild oat = experiment: Test B postemergence herbicide test; format: in vivo, Avena fatua; details: postemergence; for pest or weed control at 125 g/ha / pest or weed control at 500 g/ha: Avena fatua, post-emergence, 336 h, read-out: Oat, Wild plant response rating
How it was run: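 Treated at 2-leaf (paddy) or 1–4-leaf, 2–18 cm (postemergence); greenhouse 13–15 d; visual score vs control, 0 none to 100 complete control; dash = not tested.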

[1] = post-emergence, Postemergence, 500 g ai/ha, 0 to 100 scale, 0 no effect, 100 complete control, read-out: Morningglory plant response rating
[2] = post-emergence, Postemergence, 2000 g ai/ha, 0 to 100 scale, 0 no effect, 100 complete control, read-out: Plant response rating, Morningglory
[3] = pre-emergence, Preemergence, 2000 g ai/ha, visual rating, 0 to 100 scale (0 no effect, 100 complete control), read-out: Morningglory plant response rating
[4] = post-emergence, postemergence, 125 g ai/ha, visual rating, scale 0 (no effect) to 100 (complete control), read-out: Pigweed plant response rating
[5] = 125 g ai/ha, visual rating, scale 0 (no effect) to 100 (complete control)
[6] = 500 g ai/ha, scale 0 to 100, 0 is no effect, 100 is complete control
[7] = Postemergence, 500 g ai/ha, 0 to 100 scale, 0 no effect, 100 complete control
[8] = Postemergence, 2000 g ai/ha, 0 to 100 scale, 0 no effect, 100 complete control
[9] = Preemergence, 2000 g ai/ha, visual rating, 0 to 100 scale (0 no effect, 100 complete control)
[10] = preemergence, 500 g ai/ha, visual injury, 0 to 100 scale (0 no effect, 100 complete control)
[11] = 500 g ai/ha, visual rating, preemergence
[12] = postemergence, 125 g ai/ha, visual rating, scale 0 (no effect) to 100 (complete control)
[13] = postemergence, 500 g ai/ha, scale 0 to 100, 0 is no effect, 100 is complete control

Structure (SMILES) | pest or weed control at 500 g/ha (morningglory; [1]) [%] | pest or weed control at 2000 g/ha (morningglory; [2]) [%] | pest or weed control at 2000 g/ha (morningglory; [3]) [%] | pest or weed control at 125 g/ha (pigweed; [4]) [%] | pest or weed control at 125 g/ha (wild oat; [5]) [%] | Morningglory plant response rating (morningglory; [7]) | Plant response rating, Morningglory (morningglory; [8]) | Morningglory plant response rating (morningglory; [9]) | Morningglory plant response rating (morningglory; [10]) | Pigweed plant response rating (0 to 100 scale) (pigweed; 125 g ai/ha, preemergence) | Plant response rating, Pigweed (pigweed; [11]) | Pigweed plant response rating (pigweed; [12]) | Pigweed plant response rating (pigweed; [13]) | Oat, Wild plant response rating (wild oat; [5]) | Oat, Wild plant response rating (wild oat; [6]) | further results
CCn1nc(C(C)(C)C)cc1C(=O)Nc1cc(C(=O)OC)ccn1 [Compound 151, methyl 2-[[[3-(1,1-dimethylethyl)-1-ethyl-1H-pyrazol-5-yl]carbonyl]amino]-4-pyridinecarboxylate] | 10 | 20 | 0 | 10 | 10 |  |  |  |  |  |  |  |  |  |  | pest or weed control at 500 g/ha (morningglory; pre-emergence, Preemergence, 500 g ai/ha, visual rating, 0 to 100 scale (0 no effect, 100 complete control), read-out: Morningglory plant response rating): 0%; pest or weed control at 500 g/ha (pigweed; post-emergence, postemergence, 500 g ai/ha, visual rating, scale 0 (no effect) to 100 (complete control), read-out: Pigweed plant response rating): 30%; pest or weed control at 500 g/ha (pigweed; pre-emergence, 500 g ai/ha, visual rating 0-100, 0 no effect, 100 complete control, read-out: Plant response rating, Pigweed): 0%; pest or weed control at 125 g/ha (pigweed; pre-emergence, preemergence, 125 g ai/ha, 0 to 100 scale, 0 is no effect, 100 is complete control, read-out: Plant response rating, Pigweed): 0%; pest or weed control at 500 g/ha (wild oat; 500 g ai/ha, visual rating, scale 0 (no effect) to 100 (complete control)): 30%
CCOC(=O)c1ccc(F)c(NC(=O)C2CC(C(C)(C)C)=NN2CC)c1 (centres unmarked) [Compound 267, ethyl 3-[[[3-(1,1-dimethylethyl)-1-ethyl-4,5-dihydro-1H-pyrazol-5-yl]carbonyl]amino]-4-fluorobenzoate] | 30 | 45 | 45 | 60 | 30 |  |  |  |  |  |  |  |  |  |  | pest or weed control at 500 g/ha (morningglory; pre-emergence, preemergence, 500 g ai/ha, visual injury, 0 to 100 scale (0 no effect, 100 complete control), read-out: Morningglory plant response rating): 20%; pest or weed control at 500 g/ha (pigweed; post-emergence, postemergence, 500 g ai/ha, scale 0 to 100, 0 is no effect, 100 is complete control, read-out: Pigweed plant response rating): 90%; pest or weed control at 500 g/ha (wild oat; [6]): 40%
CCn1nc(C(C)(C)C)cc1C(=O)Nc1cccc(OC(C)C)c1 [Compound 273] |  |  |  |  |  | 70 | 75 | 80 | 45 | 70 | 100 | 80 | 90 | 30 | 50 | 
CCn1nc(C(C)(C)C)cc1C(=O)Nc1cccc(C(=O)N2CC=CC2)c1 [Compound 286] |  |  |  |  |  | 20 | 35 | 40 | 30 | 100 | 100 | 60 | 100 | 30 | 40 | 
